Target: T1, human Fatty Acid Synthase (Homo sapiens, UniProt P49327)
T1 construct: made in house
Experiment: Human FAS enzyme assay (decrease in NADPH fluorescence)
Assay type: biochemical
Settings: % inhibition at a concentration of 100 μmolar
Summary of the method: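 In-house human FAS was preincubated with compound and NADPH for 15 min at room temperature in 0.1 M Tris pH 7.5 with EDTA, glutathione and BSA. Malonyl CoA and acetyl CoA (500 μM and 150 μM in the added mix) were then added for 60 min. IC50 came from time-zero-subtracted NADPH fluorescence (340/460 nm).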

T1 sequence (P49327 whole entry): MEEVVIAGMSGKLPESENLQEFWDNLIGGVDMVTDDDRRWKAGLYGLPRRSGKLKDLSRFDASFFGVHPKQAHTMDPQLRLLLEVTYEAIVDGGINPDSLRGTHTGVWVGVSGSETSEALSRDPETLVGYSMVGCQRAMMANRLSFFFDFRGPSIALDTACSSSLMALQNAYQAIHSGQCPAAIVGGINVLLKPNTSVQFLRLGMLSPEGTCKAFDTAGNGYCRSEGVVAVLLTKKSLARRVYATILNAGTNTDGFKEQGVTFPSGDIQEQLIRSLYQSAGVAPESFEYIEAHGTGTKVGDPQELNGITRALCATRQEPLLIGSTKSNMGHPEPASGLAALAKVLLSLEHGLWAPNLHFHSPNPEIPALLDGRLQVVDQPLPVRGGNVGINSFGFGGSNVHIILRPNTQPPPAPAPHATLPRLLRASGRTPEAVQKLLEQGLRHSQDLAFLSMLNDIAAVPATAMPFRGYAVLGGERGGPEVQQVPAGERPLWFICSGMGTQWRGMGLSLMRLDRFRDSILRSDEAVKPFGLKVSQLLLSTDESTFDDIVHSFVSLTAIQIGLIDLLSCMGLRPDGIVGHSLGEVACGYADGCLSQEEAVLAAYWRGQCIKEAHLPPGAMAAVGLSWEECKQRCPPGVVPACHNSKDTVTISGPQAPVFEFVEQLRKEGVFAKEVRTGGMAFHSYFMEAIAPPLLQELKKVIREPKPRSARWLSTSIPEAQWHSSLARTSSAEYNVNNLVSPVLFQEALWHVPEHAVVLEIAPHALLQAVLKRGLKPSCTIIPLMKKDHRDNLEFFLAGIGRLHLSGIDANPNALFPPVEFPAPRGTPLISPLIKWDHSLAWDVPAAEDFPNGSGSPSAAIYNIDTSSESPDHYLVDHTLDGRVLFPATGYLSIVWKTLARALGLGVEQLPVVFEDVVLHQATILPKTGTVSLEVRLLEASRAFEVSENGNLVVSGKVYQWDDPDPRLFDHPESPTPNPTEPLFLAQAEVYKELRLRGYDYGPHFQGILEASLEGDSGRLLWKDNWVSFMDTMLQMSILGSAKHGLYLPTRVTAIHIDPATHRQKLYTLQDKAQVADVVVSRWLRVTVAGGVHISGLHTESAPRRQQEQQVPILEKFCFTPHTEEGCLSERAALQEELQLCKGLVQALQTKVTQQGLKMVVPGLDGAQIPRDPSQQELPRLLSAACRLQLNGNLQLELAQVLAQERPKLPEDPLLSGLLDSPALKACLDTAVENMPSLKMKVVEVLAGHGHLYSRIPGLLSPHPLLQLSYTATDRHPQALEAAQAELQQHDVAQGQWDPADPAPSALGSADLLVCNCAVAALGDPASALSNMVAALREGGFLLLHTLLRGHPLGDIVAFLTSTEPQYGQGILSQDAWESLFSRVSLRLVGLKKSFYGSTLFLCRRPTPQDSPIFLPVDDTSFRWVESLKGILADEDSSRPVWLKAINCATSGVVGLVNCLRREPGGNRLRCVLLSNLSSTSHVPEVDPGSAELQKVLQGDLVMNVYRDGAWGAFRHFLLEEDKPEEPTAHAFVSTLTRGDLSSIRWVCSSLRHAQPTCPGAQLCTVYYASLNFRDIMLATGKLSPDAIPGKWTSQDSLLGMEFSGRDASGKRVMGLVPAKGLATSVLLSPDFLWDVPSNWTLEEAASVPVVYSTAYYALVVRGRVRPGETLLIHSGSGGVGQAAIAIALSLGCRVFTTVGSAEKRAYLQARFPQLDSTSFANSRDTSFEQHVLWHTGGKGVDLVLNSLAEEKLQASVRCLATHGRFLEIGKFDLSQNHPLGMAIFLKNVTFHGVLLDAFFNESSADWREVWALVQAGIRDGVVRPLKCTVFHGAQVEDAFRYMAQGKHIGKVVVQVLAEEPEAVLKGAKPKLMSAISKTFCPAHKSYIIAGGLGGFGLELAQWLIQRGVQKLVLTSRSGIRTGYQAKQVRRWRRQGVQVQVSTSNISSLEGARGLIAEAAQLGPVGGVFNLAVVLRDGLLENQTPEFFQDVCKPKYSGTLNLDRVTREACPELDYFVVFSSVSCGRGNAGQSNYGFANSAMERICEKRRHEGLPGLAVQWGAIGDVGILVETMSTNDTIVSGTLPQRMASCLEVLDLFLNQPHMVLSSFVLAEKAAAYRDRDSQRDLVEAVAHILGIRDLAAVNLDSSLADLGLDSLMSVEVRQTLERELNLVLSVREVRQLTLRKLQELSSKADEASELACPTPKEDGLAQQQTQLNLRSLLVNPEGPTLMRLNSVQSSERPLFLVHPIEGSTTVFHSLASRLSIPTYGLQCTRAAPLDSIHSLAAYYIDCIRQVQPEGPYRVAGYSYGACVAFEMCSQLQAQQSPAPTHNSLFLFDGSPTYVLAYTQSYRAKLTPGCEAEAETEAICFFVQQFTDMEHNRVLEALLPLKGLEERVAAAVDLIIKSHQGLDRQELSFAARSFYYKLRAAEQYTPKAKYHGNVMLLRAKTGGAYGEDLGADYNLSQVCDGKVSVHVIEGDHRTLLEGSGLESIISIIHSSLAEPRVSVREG

**Q.** Which inhibition at 100 µM does the source give for Cc1ccc(C(=O)N2CCC(c3ccc(C#N)cc3)CC2)cc1NC(=O)NCCc1c[nH]cn1 [Example 139, 1-[5-[4-(4-cyanophenyl)piperidine-1-carbonyl]-2-methyl-phenyl]-3-[2-(1H-imidazol-4-yl)ethyl]urea] here?
**A.** Its inhibition at 100 µM is 87%.

**Q.** With Cc1ccc(C(=O)N2CCC(c3ccc(C#N)cc3)CC2)cc1NC(=O)NCCCN1CCN(C)CC1 [Example 140, 1-[5-[4-(4-cyanophenyl)piperidine-1-carbonyl]-2-methyl-phenyl]-3-[3-(4-methylpiperazin-1-yl)propyl]urea] as the compound, how does the inhibition at 100 µM read?
**A.** Its inhibition at 100 µM is 79.2%.

**Q.** Which inhibition at 100 µM does the source give for Cc1ccc(C(=O)N2CCC(c3ccc(C#N)cc3)CC2)cc1NC(=O)NCCCN(CCO)CCO [Example 141, 3-[3-(bis(2-hydroxyethyl)amino)propyl]-1-[5-[4-(4-cyanophenyl)piperidine-1-carbonyl]-2-methyl-phenyl]urea] here?
**A.** Its inhibition at 100 µM is 82.1%.

**Q.** With Cc1ccc(C(=O)N2CCC(c3ccc(C#N)cc3)CC2)cc1NC(=O)NCCCCN(C)C [Example 142, 1-[5-[4-(4-cyanophenyl)piperidine-1-carbonyl]-2-methyl-phenyl]-3-(4-dimethylaminobutyl)urea] as the compound, how does the inhibition at 100 µM read?
**A.** Its inhibition at 100 µM is 80.3%.

**Q.** With Cc1ccc(C(=O)N2CCC(c3ccc(C#N)cc3)CC2)cc1NC(=O)NC1CN2CCC1CC2 (centres unmarked) [Example 143, 3-(1-azabicyclo[2.2.2]oct-8-yl)-1-[5-[4-(4-cyanophenyl)piperidine-1-carbonyl]-2-methyl-phenyl]urea] as the compound, how does the inhibition at 100 µM read?
**A.** Its inhibition at 100 µM is 84.4%.

**Q.** How did the inhibition at 100 µM turn out when Cc1ccc(C(=O)N2CCC(c3ccc(C#N)cc3)CC2)cc1NC(=O)NCCC1CCCN1C (centres unmarked) [Example 144, 1-[5-[4-(4-cyanophenyl)piperidine-1-carbonyl]-2-methyl-phenyl]-3-[2-(1-methylpyrrolidin-2-yl)ethyl]urea] was run?
**A.** Its inhibition at 100 µM is 81.7%.

**Q.** Which inhibition at 100 µM does the source give for Cc1ccc(C(=O)N2CCC(c3ccc(C#N)cc3)CC2)cc1NC(=O)NCCN(C)C [Example 145, 1-[5-[4-(4-cyanophenyl)piperidine-1-carbonyl]-2-methyl-phenyl]-3-(2-dimethylaminoethyl)urea] here?
**A.** The inhibition at 100 µM was 79.3%.

**Q.** For Cc1ccc(C(=O)N2CCC(c3ccc(C#N)cc3)CC2)cc1NC(=O)NCCCN1CCOCC1 [Example 146, 1-[5-[4-(4-cyanophenyl)piperidine-1-carbonyl]-2-methyl-phenyl]-3-(3-morpholin-4-ylpropyl)urea], which inhibition at 100 µM is on record?
**A.** The inhibition at 100 µM was 89.7%.

**Q.** How did the inhibition at 100 µM turn out when COCCN1CCC(NC(=O)Nc2cc(C(=O)N3CCC(c4ccc(C#N)cc4)CC3)ccc2C)CC1 [Example 147, 1-[5-[4-(4-cyanophenyl)piperidine-1-carbonyl]-2-methyl-phenyl]-3-[1-(2-methoxyethyl)-4-piperidyl]urea] was run?
**A.** Its inhibition at 100 µM is 79.5%.

**Q.** Which inhibition at 100 µM does the source give for Cc1ccc(C(=O)N2CCC(c3ccc(C#N)cc3)CC2)cc1NC(=O)NC1CCN(C)CC1 [Example 148, 1-[5-[4-(4-cyanophenyl)piperidine-1-carbonyl]-2-methyl-phenyl]-3-(1-methyl-4-piperidyl)urea] here?
**A.** The inhibition at 100 µM was 79.5%.

**Q.** With CCN1CCC[C@H]1CNC(=O)Nc1cc(C(=O)N2CCC(c3ccc(C#N)cc3)CC2)ccc1C [Example 149, 3-[5-[4-(4-cyanophenyl)piperidine-1-carbonyl]-2-methyl-phenyl]-1-[[(2S)-1-ethylpyrrolidin-2-yl]methyl]urea] as the compound, how does the inhibition at 100 µM read?
**A.** Its inhibition at 100 µM is 80.2%.

**Q.** For Cc1ccc(C(=O)N2CCC(c3ccc(C#N)cc3)CC2)cc1NC(=O)NCc1cncn1C [Example 150, 1-[5-[4-(4-cyanophenyl)piperidine-1-carbonyl]-2-methyl-phenyl]-3-[(3-methylimidazol-4-yl)methyl]urea], which inhibition at 100 µM is on record?
**A.** The inhibition at 100 µM was 85%.

**Q.** For Cc1ccc(C(=O)N2CCC(c3ccc(C#N)cc3)CC2)cc1NC(=O)NCC1CCCO1 (centres unmarked) [Example 151, 1-[5-[4-(4-cyanophenyl)piperidine-1-carbonyl]-2-methyl-phenyl]-3-(oxolan-2-ylmethyl)urea], which inhibition at 100 µM is on record?
**A.** The inhibition at 100 µM was 92.1%.

**Q.** How did the inhibition at 100 µM turn out when COCCNC(=O)Nc1cc(C(=O)N2CCC(c3ccc(C#N)cc3)CC2)ccc1C [Example 152, 1-[5-[4-(4-cyanophenyl)piperidine-1-carbonyl]-2-methyl-phenyl]-3-(2-methoxyethyl)urea] was run?
**A.** The inhibition at 100 µM was 95.1%.

**Q.** Cc1ccc(C(=O)N2CCC(c3ccc(C#N)cc3)CC2)cc1NC(=O)NCCCOC(C)C [Example 153, 1-[5-[4-(4-cyanophenyl)piperidine-1-carbonyl]-2-methyl-phenyl]-3-(3-propan-2-yloxypropyl)urea] was tested. Which inhibition at 100 µM did it give?
**A.** Its inhibition at 100 µM is 88.2%.

**Q.** COCCCNC(=O)Nc1cc(C(=O)N2CCC(c3ccc(C#N)cc3)CC2)ccc1C [Example 154, 1-[5-[4-(4-cyanophenyl)piperidine-1-carbonyl]-2-methyl-phenyl]-3-(3-methoxypropyl)urea] was tested. Which inhibition at 100 µM did it give?
**A.** The inhibition at 100 µM was 93%.

**Q.** How did the inhibition at 100 µM turn out when COCC(C)NC(=O)Nc1cc(C(=O)N2CCC(c3ccc(C#N)cc3)CC2)ccc1C (centres unmarked) [Example 155, 1-[5-[4-(4-cyanophenyl)piperidine-1-carbonyl]-2-methyl-phenyl]-3-(1-methoxypropan-2-yl)urea] was run?
**A.** Its inhibition at 100 µM is 90.1%.

**Q.** How did the inhibition at 100 µM turn out when CSCCNC(=O)Nc1cc(C(=O)N2CCC(c3ccc(C#N)cc3)CC2)ccc1C [Example 156, 1-[5-[4-(4-cyanophenyl)piperidine-1-carbonyl]-2-methyl-phenyl]-3-(2-methylsulfanylethyl)urea] was run?
**A.** The inhibition at 100 µM was 92.2%.

**Q.** How did the inhibition at 100 µM turn out when CSCCCNC(=O)Nc1cc(C(=O)N2CCC(c3ccc(C#N)cc3)CC2)ccc1C [Example 157, 1-[5-[4-(4-cyanophenyl)piperidine-1-carbonyl]-2-methyl-phenyl]-3-(3-methylsulfanylpropyl)urea] was run?
**A.** Its inhibition at 100 µM is 92.7%.

**Q.** With CCOCCCNC(=O)Nc1cc(C(=O)N2CCC(c3ccc(C#N)cc3)CC2)ccc1C [Example 158, 3-[5-[4-(4-cyanophenyl)piperidine-1-carbonyl]-2-methyl-phenyl]-1-(3-ethoxypropyl)urea] as the compound, how does the inhibition at 100 µM read?
**A.** Its inhibition at 100 µM is 89.1%.

**Q.** For COC(C)(C)CNC(=O)Nc1cc(C(=O)N2CCC(c3ccc(C#N)cc3)CC2)ccc1C [Example 159, 1-[5-[4-(4-cyanophenyl)piperidine-1-carbonyl]-2-methyl-phenyl]-3-(2-methoxy-2-methyl-propyl)urea], which inhibition at 100 µM is on record?
**A.** Its inhibition at 100 µM is 88%.

**Q.** Cc1ccc(C(=O)N2CCC(c3ccc(C#N)cc3)CC2)cc1NC(=O)NCC1COCCO1 (centres unmarked) [Example 160, 1-[5-[4-(4-cyanophenyl)piperidine-1-carbonyl]-2-methyl-phenyl]-3-(1,4-dioxan-2-ylmethyl)urea] was tested. Which inhibition at 100 µM did it give?
**A.** Its inhibition at 100 µM is 94.9%.

**Q.** With COCCOCCCNC(=O)Nc1cc(C(=O)N2CCC(c3ccc(C#N)cc3)CC2)ccc1C [Example 161, 1-[5-[4-(4-cyanophenyl)piperidine-1-carbonyl]-2-methyl-phenyl]-3-[3-(2-methoxyethoxy)propyl]urea] as the compound, how does the inhibition at 100 µM read?
**A.** Its inhibition at 100 µM is 93.7%.

**Q.** Cc1ccc(C(=O)N2CCC(c3ccc(C#N)cc3)CC2)cc1NC(=O)NC1CCOCC1 [Example 162, 1-[5-[4-(4-cyanophenyl)piperidine-1-carbonyl]-2-methyl-phenyl]-3-(oxan-4-yl)urea] was tested. Which inhibition at 100 µM did it give?
**A.** Its inhibition at 100 µM is 84.2%.

**Q.** With Cc1ccc(C(=O)N2CCC(c3ccc(C#N)cc3)CC2)cc1NC(=O)NC1COc2ccccc2OC1 [Example 163, 1-[5-[4-(4-cyanophenyl)piperidine-1-carbonyl]-2-methyl-phenyl]-3-(2,6-dioxabicyclo[5.4.0]undeca-8,10,12-trien-4-yl)urea] as the compound, how does the inhibition at 100 µM read?
**A.** The inhibition at 100 µM was 102%.

**Q.** For CCCOCCNC(=O)Nc1cc(C(=O)N2CCC(c3ccc(C#N)cc3)CC2)ccc1C [Example 164, 3-[5-[4-(4-cyanophenyl)piperidine-1-carbonyl]-2-methyl-phenyl]-1-(2-propoxyethyl)urea], which inhibition at 100 µM is on record?
**A.** Its inhibition at 100 µM is 95%.

**Q.** How did the inhibition at 100 µM turn out when Cc1ccc(C(=O)N2CCC(c3ccc(C#N)cc3)CC2)cc1NC(=O)NCC1COc2ccccc2O1 (centres unmarked) [Example 165, 1-[5-[4-(4-cyanophenyl)piperidine-1-carbonyl]-2-methyl-phenyl]-3-(7,10-dioxabicyclo[4.4.0]deca-2,4,11-trien-8-ylmethyl)urea] was run?
**A.** The inhibition at 100 µM was 92.4%.

**Q.** How did the inhibition at 100 µM turn out when Cc1ccc(C(=O)N2CCC(c3ccc(C#N)cc3)CC2)cc1NC(=O)NCC1CCCCO1 (centres unmarked) [Example 166, 1-[5-[4-(4-cyanophenyl)piperidine-1-carbonyl]-2-methyl-phenyl]-3-(oxan-2-ylmethyl)urea] was run?
**A.** The inhibition at 100 µM was 94.7%.

**Q.** For Cc1ccc(C(=O)N2CCC(c3ccc(C#N)cc3)CC2)cc1NC(=O)NCC#N [Example 167, 3-(cyanomethyl)-1-[5-[4-(4-cyanophenyl)piperidine-1-carbonyl]-2-methyl-phenyl]urea], which inhibition at 100 µM is on record?
**A.** The inhibition at 100 µM was 90.3%.

**Q.** Which inhibition at 100 µM does the source give for Cc1ccc(C(=O)N2CCC(c3ccc(C#N)cc3)CC2)cc1NC(=O)NCC(F)(F)F [Example 168, 1-[5-[4-(4-cyanophenyl)piperidine-1-carbonyl]-2-methyl-phenyl]-3-(2,2,2-trifluoroethyl)urea] here?
**A.** Its inhibition at 100 µM is 84.6%.

**Q.** With Cc1ccc(C(=O)N2CCC(c3ccc(C#N)cc3)CC2)cc1NC(=O)NC1CCS(=O)(=O)C1 (centres unmarked) [Example 169, 1-[5-[4-(4-cyanophenyl)piperidine-1-carbonyl]-2-methyl-phenyl]-3-(1,1-dioxothiolan-3-yl)urea] as the compound, how does the inhibition at 100 µM read?
**A.** The inhibition at 100 µM was 95.6%.

**Q.** With Cc1ccc(C(=O)N2CCC(c3ccc(C#N)cc3)CC2)cc1NC(=O)NCCC(=O)Nc1ccccn1 [Example 170, 3-[[5-[4-(4-cyanophenyl)piperidine-1-carbonyl]-2-methyl-phenyl]carbamoylamino]-N-pyridin-2-yl-propanamide] as the compound, how does the inhibition at 100 µM read?
**A.** The inhibition at 100 µM was 94.6%.

**Q.** With Cc1ccc(C(=O)N2CCC(c3ccc(C#N)cc3)CC2)cc1NC(=O)NCC(=O)NC(C)C [Example 171, 2-[[5-[4-(4-cyanophenyl)piperidine-1-carbonyl]-2-methyl-phenyl]carbamoylamino]-N-propan-2-yl-acetamide] as the compound, how does the inhibition at 100 µM read?
**A.** Its inhibition at 100 µM is 96.3%.

**Q.** How did the inhibition at 100 µM turn out when CCCCNC(=O)NCCNC(=O)Nc1cc(C(=O)N2CCC(c3ccc(C#N)cc3)CC2)ccc1C [Example 172, 1-butyl-3-[2-[[5-[4-(4-cyanophenyl)piperidine-1-carbonyl]-2-methyl-phenyl]carbamoylamino]ethyl]urea] was run?
**A.** Its inhibition at 100 µM is 91.8%.

**Q.** For Cc1ccc(C(=O)N2CCC(c3ccc(C#N)cc3)CC2)cc1NC(=O)NCCCCCNC(=O)N1CCOCC1 [Example 173, N-[5-[[5-[4-(4-cyanophenyl)piperidine-1-carbonyl]-2-methyl-phenyl]carbamoylamino]pentyl]morpholine-4-carboxamide], which inhibition at 100 µM is on record?
**A.** The inhibition at 100 µM was 95.5%.

Reference: US20090118332A1, “Therapeutic Agents - 551” (AstraZeneca AB, priority 2006, published 2009)
